US20250313530A1, “SMALL MOLECULE INHIBITORS OF INTERLEUKIN-4 AND USES THEREOF” (Trustees of Boston University, priority 2024, published 2025)
Where “and” joins values, the source holds several entries; their conditions need not be identical. Equal values may be shown once. Read-outs that look alike come from different tables or passages of the source.

Columns and labels:
[1] = Mouse hepatic microsome stability; format: in vitro ADME; details: mouse hepatic microsomes
[2] = PAMPA membrane permeability; format: in vitro ADME; details: 18 hours incubation
Experimental: PVDF membranes purchased from Bioassay Systems PAMPA-096 were coated with 5 μL of 4% Phosphatidylcholine (Lecithin, MP Biomedicals 0210214780) in dodecane. […] Permeability was calculated by Pv=C×ln (1−ODA/ODE) cm/s, where ODA is the absorbance of acceptor solution minus blank, and ODE the absorbance of the equilibrium standard minus blank, and C=7.72×10^−6 using an 18-hour incubation time.

Human plasma stability = format: in vitro ADME
[3] = system: IL-4 induced STAT-6 phosphorylation in THP-1 monocytes (type II IL-4 receptor); experiment: THP-1 STAT-6 phosphorylation assay (western blot); format: cell-based
Experimental: THP-1 cells were received as a gift from the laboratory of Dr. Mark Grinstaff and maintained in RMPI-1640 with […] heat-inactivated Fetal Bovine Serum and 50 μM beta-mercaptoethanol. Cells used for assays were between passages 6 and 10, 10 ng/mL IL-4 was preincubated with experimental sample (vehicle or analogs) for 30 minutes at 37° C. 1 mL of each solution was then added to a pellet of 2 E6 THP-1 cells and pipetted up and down. THP-1 cells were incubated for 30 minutes in the incubator at 37 C/5% CO2. Cells were then spun down and lysed with 200 μL ice-cold RIPA buffer complete with phosphatase and protease inhibitors. Cell lysates were incubated on ice for 30 minutes, spun down and the supernatants were stored at −20° C. until western blot analysis. Undiluted cell lysates were run on SDS-PAGE and transferred to Immunoblot PVDF membrane using Biorad equipment. Membranes were incubated with 1:1000 primary antibody overnight at 4° C. Membranes were then incubated with 1:50,000 dilution secondary for 1 hour at room temperature. Membranes were then exposed to Femto ECL for 5 minutes and imaged using a Bio-Rad Gel Doc. The brightness/contrast was adjusted in FIJI and the area under the curve of each lane was quantified. The phosphorylated STAT-6 to STAT-6 ratio was calculated and normalized to the amount of total STAT-6. The data was plotted and analyzed using GraphPad Prism 9.2.0′.

[4] = system: IL-4 induced STAT-6 phosphorylation in Ramos B lymphocytes (type I IL-4 receptor); experiment: Ramos STAT-6 phosphorylation assay (western blot); format: cell-based
Experimental: Ramos cells were purchased from ATCC and maintained in RMPI-1640 with 10% heat-inactivated Fetal Bovine Serum. Cells used for assays were between passages 4 and 8. […] Undiluted cell lysates were run SDS-PAGE and transferred to Immunoblot PVDF membrane using Biorad equipment. Membranes were incubated with 1:1000 primary antibody overnight at 4° C. Membranes were then incubated with 1:50,000 dilution secondary for 1 hour at room temperature. Membranes were then exposed to Femto ECL for 5 minutes and imaged using a Bio-Rad Gel Doc. The brightness/contrast was adjusted in FIJI and the area under the curve of each lane was quantified. The phosphorylated STAT-6 to STAT-6 ratio was calculated and normalized to the amount of total STAT-6. The data was plotted and analyzed using GraphPad Prism 9.2.0.

[5] = system: IL-4 induced pSTAT-6 in THP-1 cells; experiment: THP-1 pSTAT-6 immunofluorescence
Experimental: IL-4 and analogs or vehicle (DMEM with 2% DMSO) were preincubated for 2 hours at 37° C. After the incubation, IL-4 or IL-4/analogs were incubated with THP-1 cells for 30 min at 37° C./5% CO2. Incubated cells were centrifuged for 5 min at 250×g. After aspirating the supernatant, cells were resuspended in 1×PBS and plated into a MatTek dish coated with Cell Tak adhesive for 30 minutes at room temperature. Cells were fixed with 4% Paraformaldehyde for 1 hour at room temperature. Cells were rinsed twice with 1×PBS and then permeabilized with 0.5% Triton-X for 1 hour at room temperature. Cells were rinsed again with 1×PBS, and blocked for an hour in superblock with 0.05% Tween-20, rinsed twice, and then incubated with anti-pSTAT-6 1:100 diluted in superblock 0.05% Tween-20 overnight at 4° C. (parafilmed to avoid evaporation). Cells were rinsed thrice with 1×PBS and then incubated with Mouse anti-rabbit IgG(H+L) Secondary Antibody-Alexa Fluor 647 for 1 hour at room temperature in the dark. […] Cells were rinsed twice with 1×PBS and left in 1 ml of 1×PBS. Confocal Imaging was done using an Olympus FV10i and images were processed using FIJI.

IL-4 [6] = molecular target: T1, IL-4 (Homo sapiens, UniProt P05112); experiment: Surface plasmon resonance binding to IL-4
T1 construct: purchased Acros Biosystems IL4-H4218; host or cells: HEK-293
T1 sequence (P05112 25-153): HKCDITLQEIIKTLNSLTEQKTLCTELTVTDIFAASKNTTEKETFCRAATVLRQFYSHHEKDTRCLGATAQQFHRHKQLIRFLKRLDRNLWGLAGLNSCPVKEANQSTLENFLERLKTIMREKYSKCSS
Experimental: Surface plasmon resonance was performed on a Biacore S200. Series S Sensor chips were purchased from Cytiva. The running buffer was 1×PBS pH 7.40 with 2% DMSO and 0.1% Tween-20 and the flow rate was kept at 50 μL/min. The SA chip was first activated with 120 μL of 1 M NaCl in 50 mM NaOH followed by a wash of 50% Isopropanol in 1 M NaCl and 50 mM NaOH, 200 μl of a 1 mg/ml solution of Avi-tagged IL-4 in DMSO-free buffer was used to immobilize 7073 RU on the chip surface using the BiacoreS200 software, 100 μl of 50 mM Biocytin was used to block all biotin slides on the sensor chip with manual setting. The system was then primed with running buffer for 7 minutes. […] Analog 15 was diluted in the running buffer and injected for 300 seconds cycles, in an ascending order. The dissociation phase was 600 seconds long. Sensorgram figures were created by exporting the raw data and plotting in Graphpad Prism 9.2.0^48.

IL-4 [7] = molecular target: T1, IL-4; experiment: HEK-Blue IL-4/IL-13 reporter assay, IL-4 inhibition; format: cell-based; details: for EC50: dose response, IL-4 inhibition
IL-4 [8] = molecular target: T1, IL-4; experiment: as above; format: cell-based; details: control: cells with 10 μM compound only, no IL-4

N#Cc1c(-c2ccc(O)c(O)c2)cc(-c2ccccc2)[nH]c1=N [Compound 15, 4-(3,4-dihydroxyphenyl)-2-imino-6-phenyl-1,2-dihydropyridine-3-carbonitrile]
Mouse hepatic microsome stability (% remaining after 1 hour) [1]: 30.3% | Papp at 18 h, 100 μM [2]: 12.7 ×10⁻⁶ cm/s | Human plasma stability (% remaining after 3 hours) (Human plasma stability): 97.4% | EC50 ([3]; Homo sapiens, THP-1 monocytes, western blot, normalized to STAT-6, read-out: EC50 of inhibition of STAT-6 phosphorylation): 49.6 nM | STAT-6 levels ([3]; total STAT-6, THP-1 cells): not impacted | inhibition at 0.5 µM ([4]; Homo sapiens, Ramos, read-out: percent inhibition of STAT-6 phosphorylation): 61.9% | inhibition of phosphorylation of STAT-6 ([4]; Ramos B lymphocytes, 50 nM): minimum inhibition | STAT-6 phosphorylation by immunofluorescence ([5]; 50 nM): reduced STAT-6 phosphorylation | STAT-6 phosphorylation by immunofluorescence ([5]; 500 nM): complete inhibition of phosphorylation | kd (IL-4 [6]; SPR kinetic binding constant): 8.34 e−04 s^−1 | Kd (IL-4 [6]; SPR steady-state affinity analysis): 31.9 nM | kon (IL-4 [6]; pH 7.4, read-out: ka): 26200 M⁻¹ s⁻¹ | inhibition at 10 µM (IL-4 [7]; HEK-Blue, 10 μM, IL-4, HEK Blue IL-4/IL-13 reporter assay): 95.5% | EC50 (IL-4 [7]; HEK Blue IL-4/IL-13 reporter assay, read-out: EC50): 850 nM and 550 nM | EC50 (IL-4 [7]; values in text, read-out: potency (EC50 of inhibition)): 552 nM | Hill coefficient (IL-4 [7]; fit of dose response in HEK Blue IL-4/IL-13 reporter assay): 1.49±0.15 | Abs650 (IL-4 [8]): 0.06345 ± 0.001036
